O=C(O)c1ccccc1Nc1ccccc1
solubility (mole fraction)
Conditions	in acetone	in acetonitrile	in ethanol	in ethyl acetate	in isopropanol	in methanol	in n-butanol	in n-propanol	in toluene
283.15 K	0.019	0.00147	0.00703	0.012	0.00593	0.00331	0.00849	0.00734	0.00238
285.65 K	0.0202	0.00171	0.00768	0.0133	0.00692	0.00381	0.00972	0.00831	0.00275
288.15 K	0.0223	0.00197	0.00854	0.0156	0.00805	0.00439	0.0112	0.00975	0.00321
290.65 K	0.0252	0.00228	0.00958	0.0182	0.00933	0.00521	0.013	0.0114	0.00374
293.15 K	0.0279	0.00268	0.0112	0.0213	0.0107	0.0061	0.0147	0.0132	0.00439
295.65 K	0.0304	0.00311	0.013	0.0235	0.0124	0.00723	0.0167	0.0152	0.00502
298.15 K	0.0335	0.00373	0.0152	0.0267	0.0144	0.00825	0.0187	0.0172	0.00573
300.65 K	0.0361	0.00425	0.0171	0.0301	0.0164	0.00944	0.0209	0.0194	0.00648
303.15 K	0.0399	0.00491	0.0196	0.034	0.0184	0.0106	0.0233	0.0216	0.00742
305.65 K	0.0427	0.00556	0.0219	0.0373	0.0208	0.0119	0.0256	0.0239	0.00841
308.15 K	0.0465	0.00617	0.0249	0.0414	0.0232	0.0129	0.0283	0.0266	0.0096
310.65 K	0.0499	0.00695	0.0276	0.0458	0.0254	0.0145	0.0311	0.0292	0.0109
313.15 K	0.0537	0.0078	0.0311	0.0503	0.0281	0.0164	0.0338	0.0322	0.0124
315.65 K	0.0582	0.00892	0.0339	0.0555	0.0309	0.0186	0.0367	0.035	0.014
318.15 K	0.063	0.0102	0.0374	0.0604	0.034	0.0212	0.0396	0.0383	0.0155

From BigSolDB 2.1
